From patent publication US8658416B2, “Toxin-eating bacteria and bioremediation” (priority 2008, dated 2014)

How the values were obtained:
[1] = system: clonal bacterial isolates from 11 diverse soils; format: cell-based, soil bacteria; details: antibiotic as sole carbon source at 1 g/L in SCS media pH 5.5, 22° C., positive growth at least 10^8 cells/mL
Procedure: The pH was adjusted to 5.5 using HCl, and the media was sterilized through a 0.22 μm filter. Solid medium was prepared by adding 15 g agar per liter of liquid SCS media followed by autoclaving before adding antibiotics.
Clonal isolates from the liquid cultures were obtained by plating cultures out on SCS-antibiotic agar medium and resulting single colonies were picked and re-streaked on corresponding plates. Three colonies each were then inoculated into fresh SCS-antibiotic liquid media (5 mL) to confirm clonal phenotype. Final culture growth was recorded after 1 month incubation without shaking at 22° C. and cultures with at least 10^8 cells/mL were assayed as positive growth.
All antibiotics used were purchased from Sigma-Aldrich at the highest purities available.

[2] = Un-inoculated media controls monitored by HPLC (antibiotic stability in SCS medium); format: physicochemical; details: 20 or 28 days, HPLC at 214 nm
Procedure: Representative isolates capable of growth on penicillin and carbenicillin as sole carbon source were selected for analysis of antibiotic removal from the growth media by High Performance Liquid Chromatography (HPLC). 2 μL of these cultures were re-inoculated into fresh SCS-antibiotic medium (5 mL) and allowed to grow for 28 days. Samples of the cultures and un-inoculated media controls were taken at regular intervals throughout the 28 day period and the catabolism of penicillin and carbenicillin was monitored at 214 nm by HPLC of filtered media from samples using a Hewlett Packard 1090 Liquid Chromatograph and a Vydac C-18 column. HPLC was performed at a flow rate of 0.3 mL/min with an acetonitrile gradient going from 5% to 65% in 30 minutes in the presence of 0.1% trifluoroacetic acid.

Row | SMILES | soils from which clonal isolates capable of subsisting on the antibiotic were obtained [1] | antibiotic peak in the un-inoculated control over the same time course [2]
1 | CC1(C)S[C@@H]2[C@H](NC(=O)C(C(=O)O)c3ccccc3)C(=O)N2[C@H]1C(=O)O (stereo partly drawn) [carbenicillin, Carbenicillin] | all the soils tested | remained relatively unchanged
2 | Cc1onc(-c2c(Cl)cccc2Cl)c1C(=O)N[C@@H]1C(=O)N2[C@@H]1SC(C)(C)[C@@H]2C(=O)O [dicloxacillin, Dicloxacillin] | 9 out of 11 soils | –
3 | CCn1cc(C(=O)O)c(=O)c2ccc(C)nc21 [nalidixic acid, Nalidixic acid] | a majority of the soils | –
4 | CC1(C)S[C@@H]2[C@H](NC(=O)Cc3ccccc3)C(=O)N2[C@H]1C(=O)O [penicillin, Penicillin G] | all the soils tested | remained the dominant peak
